pIC50: −log10 of the molar value.

The term pIC50 denotes the negative decadic logarithm of the IC50, by convention in mol/L. A low value points to a large IC50.

Sequence of human KHK-C (P50053 whole entry, the tested form may be a part): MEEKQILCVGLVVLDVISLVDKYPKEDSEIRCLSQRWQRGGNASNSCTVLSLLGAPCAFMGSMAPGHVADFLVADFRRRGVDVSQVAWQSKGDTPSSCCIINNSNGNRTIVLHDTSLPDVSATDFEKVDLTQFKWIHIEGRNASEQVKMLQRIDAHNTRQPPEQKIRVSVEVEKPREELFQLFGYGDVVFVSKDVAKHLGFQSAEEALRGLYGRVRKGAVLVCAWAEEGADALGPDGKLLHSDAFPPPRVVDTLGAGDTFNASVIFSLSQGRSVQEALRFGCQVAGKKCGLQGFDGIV

One assay concerns the target human KHK-C (Homo sapiens (Human), UniProt P50053). In words: KHK Biochemical Assay (IC50), ADP-Glo, KHK-C. As to conditions: ADP-Glo; average of at least two separate assays. The procedure: The His-tagged fusion protein was expressed using BL21 (DE3) with IPTG induction and purified using Ni-NTA column followed by dialysis into final buffer containing 25 mM Tris-HCl pH 8.0, 250 mM NaCl.
KHK Biochemical Assay (IC50)
Compounds were tested for KHK enzyme inhibition in a high-throughput 384-well assay format using the ADP-Glo assay (Promega) in buffer consisting of 50 mM Hepes (pH 7.4), 140 mM KCl, 5 mM MgCl2 and 0.01% Triton-X. 0.2 nM. […] Compounds were serially diluted (1:3) in DMSO.
The compounds were pre-incubated with 5 μL of 2× final enzyme concentration for 30 minutes before adding 5 μL of 2× final concentration of ATP and fructose. The plates were incubated at room temperature for 4 hours before adding ADP-Glo reagent to quench the enzyme reaction, followed by incubation at room temperature for 1 hour. The ADP-Glo detection reagent was then added to the plates and luminescence was measured on the Envision plate reader after 1 hour.
(In ADP-Glo the light output rises with the ADP produced.)
Take `C[C@H]1CCN1c1nc2c(c(-c3ccc4nn(C(=O)CN)cc4c3)n1)CCC2` [Example 238, (S)-2-amino-1-(5-(2-(2-methylazetidin-1-yl)-6,7-dihydro-5H-cyclopenta[d]pyrimidin-4-yl)-2H-indazol-2-yl)ethan-1-one]: the pIC50 is 7.17.
As for `C[C@H]1[C@H](O)CN1c1nc(-c2ccc3c(c2)S(=N)(=O)CCO3)c2c(n1)C(F)(F)CC2` (stereo partly drawn) [Example 818, (2S,3R)-1-[7,7-difluoro-4-(4-imino-4-oxo-2,3-dihydro-1,4λ^6-benzoxathiin-6-yl)-5,6-dihydrocyclopenta[d]pyrimidin-2-yl]-2-methyl-azetidin-3-ol], the pIC50 is 8.60.
In turn, `C[C@H]1CCN1c1nc2c(c(-c3ccc4c(cnn4C(=O)CN)c3)n1)CCC2` [Example 237, (S)-2-amino-1-(5-(2-(2-methylazetidin-1-yl)-6,7-dihydro-5H-cyclopenta[d]pyrimidin-4-yl)-1H-indazol-1-yl)ethan-1-one] had a pIC50 of 7.57.

The assay is the same for the next values; noted with them: average of at least two separate assays.
Compound `CS(=O)(=O)N[C@H]1COc2cc(-c3nc(N4C[C@@H](O)[C@@H]4CF)nc4c3CCC4(F)F)ccc21` [Example 484, N-((R)-6-(7,7-difluoro-2-((2R,3R)-2-(fluoromethyl)-3-hydroxyazetidin-1-yl)-6,7-dihydro-5H-cyclopenta[d]pyrimidin-4-yl)-2,3-dihydrobenzofuran-3-yl)methanesulfonamide] gave a pIC50 of 8.92.
`C[C@H]1[C@H](O)CN1c1nc(-c2ccc(OC(F)F)c([S@](C)(=N)=O)c2)c2c(n1)C(F)(F)CC2` (single isomer, unassigned) [Example 534] had a pIC50 of 7.49.
For `C[C@H]1[C@H](F)CN1c1nc(-c2ccc3c(c2)S(=O)(=O)C[C@H]3NS(C)(=O)=O)c2c(n1)C(F)(F)CC2` (single isomer, unassigned) [Example 680], the pIC50 is 8.85. Against the preceding compound, the pIC50 is 1.36 log units higher.
Take `C[C@H]1CCN1c1nc(-c2ccc([C@H](N)CS(C)(=O)=O)cc2)c2c(n1)C(F)(F)CC2` (single isomer, unassigned) [Example 775]: the pIC50 was 8.37.
Compound `C[C@H]1[C@H](O)CN1c1nc(-c2ccc3c(c2)C(F)(F)C[C@H]3NS(C)(=O)=O)c2c(n1)C(F)(F)CC2` (single isomer, unassigned) [Example 635] gave a negative-log IC50 (pIC50) of 8.54.
Take `C[C@H]1CCN1c1nc(-c2ccc([C@@H](N)CS(C)(=O)=O)cc2)c2c(n1)C(F)(F)CC2` (single isomer, unassigned) [Example 776]: the negative-log IC50 (pIC50) is 8.55.
The compound `C[C@H]1[C@H](O)CN1c1nc(-c2ccc3c(c2)CC[C@@]32NC(=O)NC2=O)c2c(n1)C(F)(F)CC2` [Example 485, (R)-5′-(7,7-difluoro-2-((2S,3R)-3-hydroxy-2-methylazetidin-1-yl)-6,7-dihydro-5H-cyclopenta[d]pyrimidin-4-yl)-2′,3′-dihydrospiro[imidazolidine-4,1′-indene]-2,5-dione] showed a pIC50 of 7.65. This pIC50 lies 0.90 log units lower than the previous one.
Same read-out and setting: the value for `C[C@H]1[C@H](O)CN1c1nc(-c2cc3c(c(S(C)(=N)=O)c2)OCC3)c2c(n1)C(F)(F)CC2` (stereo partly drawn) [Example 716, (5-(7,7-difluoro-2-((2S,3R)-3-hydroxy-2-methylazetidin-1-yl)-6,7-dihydro-5H-cyclopenta[d]pyrimidin-4-yl)-2,3-dihydrobenzofuran-7-yl)(imino)(methyl)-λ^6-sulfanone] was 8.42; that for “5-(7,7-difluoro-2-((2S,3R)-3-hydroxy-2-methylazetidin-1-yl)-6,7-dihydro-5H-cyclopenta[d]pyrimidin-4-yl)-2,3-dihydrospiro[indene-1,3′-[1,4]oxazepan]-5′-one [Example 552]” was 7.41; that for `C[C@H]1CCN1c1nc(-c2cccc(NS(C)(=N)=O)c2)c2c(n1)C(F)(F)CC2` (stereo partly drawn) [Example 684, 4-[3-[(amino-methyl-oxo-λ^6-sulfanylidene)amino]phenyl]-7,7-difluoro-2-[(2S)-2-methylazetidin-1-yl]-5,6-dihydrocyclopenta[d]pyrimidine] was 8.42.
Turning to `COc1c(F)cc(-c2nc(N3C[C@@H](O)[C@@H]3C)nc3c2CCC3(F)F)cc1[S@](C)(=N)=O` (single isomer, unassigned) [Example 537], the pIC50 was 7.67.
On to `C[C@@H]1N(c2nc(-c3ccc4c(c3)S(=O)(=O)C[C@H]4NS(C)(=O)=O)c3c(n2)C(F)(F)CC3)CC1(F)F` (single isomer, unassigned) [Example 682], for which the negative-log IC50 (pIC50) was 8.40.
With `C[C@H]1[C@H](O)CN1c1nc(-c2ccc3c(c2)C(F)(F)CC3NS(C)(=O)=O)c2c(n1)C(F)(F)CC2` (stereo partly drawn) [Example 633, N-(5-(7,7-difluoro-2-((2S,3R)-3-hydroxy-2-methylazetidin-1-yl)-6,7-dihydro-5H-cyclopenta[d]pyrimidin-4-yl)-3,3-difluoro-2,3-dihydro-1H-inden-1-yl)methanesulfonamide], the pIC50 was 8.70.
Still for that read-out and setting: the same measure for `N#CC1CCN1c1nc2c(c(-c3ccc(C(N)=O)cc3)n1)CCC2` (stereo not shown) [Example 458, 4-(2-(2-cyanoazetidin-1-yl)-6,7-dihydro-5H-cyclopenta[d]pyrimidin-4-yl)benzamide]: 7.24; for `COc1ccc(-c2nc(N3C[C@@H](O)[C@@H]3C)nc3c2CCC3(F)F)cc1S(=N)(=O)C1CC1` (stereo partly drawn) [Example 538, cyclopropyl(5-(7,7-difluoro-2-((2S,3R)-3-hydroxy-2-methylazetidin-1-yl)-6,7-dihydro-5H-cyclopenta[d]pyrimidin-4-yl)-2-methoxyphenyl)(imino)-λ^6-sulfanone]: 8.64; for `NC(=O)c1ccc(-c2nc(N3CC4(COC4)C3)nc3c2CCC3)cc1` [Example 417, 4-(2-(2-oxa-6-azaspiro[3.3]heptan-6-yl)-6,7-dihydro-5H-cyclopenta[d]pyrimidin-4-yl)benzamide]: less than 5.30.
In turn, `CS(=O)(=O)N[C@H]1COc2cc(-c3nc(N4CCC4C(F)F)nc4c3CCC4(F)F)ccc21` (stereo partly drawn) [Example 544, N-((3R)-6-(2-(2-(difluoromethyl)azetidin-1-yl)-7,7-difluoro-6,7-dihydro-5H-cyclopenta[d]pyrimidin-4-yl)-2,3-dihydrobenzofuran-3-yl)methanesulfonamide] had a negative-log IC50 (pIC50) of 8.96.
On the same count and under the same terms, the value for `COc1ccc(-c2nc(N3C[C@@H](O)[C@@H]3C)nc3c2CCC3(F)F)cc1[S@](=N)(=O)C1CC1` (single isomer, unassigned) [Example 540] was 7.87; that for `COc1c(F)cc(-c2nc(N3C[C@@H](O)[C@@H]3C)nc3c2CCC3(F)F)cc1[S@@](C)(=N)=O` (single isomer, unassigned) [Example 536] was 8.21; that for `C[C@H]1[C@H](O)CN1c1nc2c(c(-c3ccc4cnc(N)cc4c3)n1)CCC2` [Example 448, (2S,3R)-1-[4-(3-amino-6-isoquinolyl)-6,7-dihydro-5H-cyclopenta[d]pyrimidin-2-yl]-2-methyl-azetidin-3-ol] was 6.92.
Compound `C[C@H]1CCN1c1nc(-c2ccc3c(c2)C(NS(C)(=O)=O)CC3)c2c(n1)C(F)(F)CC2` (stereo partly shown) [Example 607] had a pIC50 of 9.05.
On to `C[C@H]1CCC(=O)N1c1nc2c(c(-c3ccc(C(N)=O)cc3)n1)CCC2` [Example 419, (S)-4-(2-(2-methyl-5-oxopyrrolidin-1-yl)-6,7-dihydro-5H-cyclopenta[d]pyrimidin-4-yl)benzamide], for which the pIC50 was less than 5.30.

The record behind these values is patent US12410160B2 (Gilead Sciences, Inc., priority 2021, dated 2025).
